# Assay results taken from patent US20260262643A1, “HERBICIDAL BENZOXAZINES” (FMC CORPORATION, priority 2022, published 2026).
# Key:
# oat, wild [1] = test: Test C preemergence; format: in vivo, Avena fatua
# How it was run: (§1)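 Seeds sown in loam soil–sand blend received a directed preemergence soil spray of test chemical in non-phytotoxic solvent with surfactant; postemergence plants (2–10 cm, one- to two-leaf stage) were sprayed with the same formulation. Greenhouse-held 10 days, then visually rated for injury versus untreated controls, 0 (no effect) to 100 (complete control).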
# barnyardgrass [2] = test: Test C preemergence; format: in vivo, Echinochloa crusgalli
# How it was run: as §1
# kochia [3] = test: Test C postemergence; format: in vivo, Bassia scoparia; details: 10 days, 0 to 100 scale (0 no effect, 100 complete control)
# How it was run: as §1
# pigweed, palmer [4] = test: Test C preemergence; format: in vivo, Amaranthus palmeri
# How it was run: as §1
# corn [5] = test: Test C preemergence; format: in vivo, Zea mays
# How it was run: as §1
# blackgrass [6] = test: Test C preemergence; format: in vivo, Alopecurus myosuroides
# How it was run: as §1
# wheat [7] = test: Test C postemergence; format: in vivo, Triticum aestivum; details: 10 days, 0 to 100 scale (0 no effect, 100 complete control)
# How it was run: as §1
# wheat [8] = test: Test C preemergence; format: in vivo, Triticum aestivum
# How it was run: as §1
# green foxtail [9] = test: Test C postemergence; format: in vivo, Setaria viridis; details: 10 days, 0 to 100 scale (0 no effect, 100 complete control)
# How it was run: as §1
# ragweed [10] = test: Test C postemergence; format: in vivo, Ambrosia artemisiifolia; details: 10 days, 0 to 100 scale (0 no effect, 100 complete control)
# How it was run: as §1
# galium = test: Test C postemergence; format: in vivo, Galium aparine; details: 10 days, 0 to 100 scale (0 no effect, 100 complete control)
# How it was run: as §1
# green foxtail [11] = test: Test C preemergence; format: in vivo, Setaria viridis
# How it was run: as §1
# ragweed [12] = test: Test C preemergence; format: in vivo, Ambrosia artemisiifolia
# How it was run: as §1
# pigweed, palmer [13] = test: Test C postemergence; format: in vivo, Amaranthus palmeri; details: 10 days, 0 to 100 scale (0 no effect, 100 complete control)
# How it was run: as §1
# ducksalad = test: Test D flooded paddy test; format: in vivo, Heteranthera limosa; details: 250 g ai/ha, applied to paddy water, visual rating after 13 to 14 days, scale 0 to 100 (0 no effect, 100 complete control)
# How it was run: (§2)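 Visual ratings from 0, meaning no effect, to 100, meaning complete control, were assigned against untreated controls 13 to 14 days after compounds were added to the floodwater of pots kept 3 cm deep, with plants at the 2-leaf stage.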
# corn [14] = test: Test C postemergence; format: in vivo, Zea mays; details: 10 days, 0 to 100 scale (0 no effect, 100 complete control)
# How it was run: as §1
# ryegrass, Italian [15] = test: Test C preemergence; format: in vivo, Lolium multiflorum
# How it was run: as §1
# soybean [16] = test: Test C postemergence; format: in vivo, Glycine max; details: 10 days, 0 to 100 scale (0 no effect, 100 complete control)
# How it was run: as §1
# ryegrass, Italian [17] = test: Test C postemergence; format: in vivo, Lolium multiflorum; details: 10 days, 0 to 100 scale (0 no effect, 100 complete control)
# How it was run: as §1
# barnyardgrass [18] = test: Test C postemergence; format: in vivo, Echinochloa crusgalli; details: 10 days, 0 to 100 scale (0 no effect, 100 complete control)
# How it was run: as §1
# soybean [19] = test: Test C preemergence; format: in vivo, Glycine max
# How it was run: as §1
# rice = test: Test D flooded paddy test; format: in vivo, Oryza sativa; details: 250 g ai/ha, applied to paddy water, visual rating after 13 to 14 days, scale 0 to 100 (0 no effect, 100 complete control)
# How it was run: as §2
# kochia [20] = test: Test C preemergence; format: in vivo, Bassia scoparia
# How it was run: as §1
# horseweed = test: Test C postemergence; format: in vivo, Erigeron canadensis; details: 10 days, 0 to 100 scale (0 no effect, 100 complete control)
# How it was run: as §1
# blackgrass [21] = test: Test C postemergence; format: in vivo, Alopecurus myosuroides; details: 10 days, 0 to 100 scale (0 no effect, 100 complete control)
# How it was run: as §1
# barnyardgrass [22] = test: Test D flooded paddy test; format: in vivo, Echinochloa crus-galli; details: 250 g ai/ha, applied to paddy water, visual rating after 13 to 14 days, scale 0 to 100 (0 no effect, 100 complete control)
# How it was run: as §2
# oat, wild [23] = test: Test C postemergence; format: in vivo, Avena fatua; details: 10 days, 0 to 100 scale (0 no effect, 100 complete control)
# How it was run: as §1
# sedge, umbrella = test: Test D flooded paddy test; format: in vivo, Cyperus difformis; details: 250 g ai/ha, applied to paddy water, visual rating after 13 to 14 days, scale 0 to 100 (0 no effect, 100 complete control)
# How it was run: as §2
# [24] = 500 g ai/ha, preemergence, 0 to 100 scale (0 no effect, 100 complete control)
# [25] = Preemergence, 125 g ai/ha, 0 to 100 scale, 0 no effect, 100 complete control
smiles,measurement,setting,value
CCOC[C@H]1CN(C(=O)c2cc(-n3cnc(CC)n3)cc3c2OCCO3)c2cccc(Cl)c2O1 [Compound 387],"Oat, Wild plant response rating","oat, wild [1]; [24]",70
same,"Plant response rating, Oat, Wild","oat, wild [1]; [25]",40
same,Barnyardgrass plant response rating,barnyardgrass [2]; [24],100
same,"Plant response rating, Barnyardgrass",barnyardgrass [2]; [25],50
same,"Plant response rating, Kochia","kochia [3]; 500 g ai/ha, postemergence",100
same,"Plant response rating, Kochia","kochia [3]; Postemergence, 125 g ai/ha",80
same,"Pigweed, Palmer plant response rating","pigweed, palmer [4]; [24]",100
same,"Plant response rating, Pigweed, Palmer","pigweed, palmer [4]; [25]",100
same,Corn plant response rating,corn [5]; [24],30
same,"Plant response rating, Corn",corn [5]; [25],0
same,Blackgrass plant response rating,blackgrass [6]; [24],20
same,"Plant response rating, Blackgrass",blackgrass [6]; [25],0
same,"Plant response rating, Wheat","wheat [7]; 500 g ai/ha, postemergence",30
same,"Plant response rating, Wheat","wheat [7]; Postemergence, 125 g ai/ha",10
same,Wheat plant response rating,wheat [8]; [24],30
same,"Plant response rating, Wheat",wheat [8]; [25],10
same,"Plant response rating, Foxtail, Green","green foxtail [9]; 500 g ai/ha, postemergence",80
same,"Plant response rating, Foxtail, Green","green foxtail [9]; Postemergence, 125 g ai/ha",40
same,"Plant response rating, Ragweed","ragweed [10]; 500 g ai/ha, postemergence",80
same,"Plant response rating, Ragweed","ragweed [10]; Postemergence, 125 g ai/ha",70
same,"Plant response rating, Galium","galium; 500 g ai/ha, postemergence",100
same,"Plant response rating, Galium","galium; Postemergence, 125 g ai/ha",100
same,"Foxtail, Green plant response rating",green foxtail [11]; [24],100
same,"Plant response rating, Foxtail, Green",green foxtail [11]; [25],50
same,Ragweed plant response rating,ragweed [12]; [24],100
same,"Plant response rating, Ragweed",ragweed [12]; [25],80
same,"Plant response rating, Pigweed, Palmer","pigweed, palmer [13]; 500 g ai/ha, postemergence",100
same,"Plant response rating, Pigweed, Palmer","pigweed, palmer [13]; Postemergence, 125 g ai/ha",90
same,"Plant response rating, Ducksalad (Flood)",ducksalad,20
same,"Plant response rating, Corn","corn [14]; 500 g ai/ha, postemergence",70
same,"Plant response rating, Corn","corn [14]; Postemergence, 125 g ai/ha",10
same,"Ryegrass, Italian plant response rating","ryegrass, Italian [15]; [24]",80
same,"Plant response rating, Ryegrass, Italian","ryegrass, Italian [15]; [25]",60
same,"Plant response rating, Soybean","soybean [16]; 500 g ai/ha, postemergence",100
same,"Plant response rating, Soybean","soybean [16]; Postemergence, 125 g ai/ha",100
same,"Plant response rating, Ryegrass, Italian","ryegrass, Italian [17]; 500 g ai/ha, postemergence",80
same,"Plant response rating, Ryegrass, Italian","ryegrass, Italian [17]; Postemergence, 125 g ai/ha",40
same,"Plant response rating, Barnyardgrass","barnyardgrass [18]; 500 g ai/ha, postemergence",60
same,"Plant response rating, Barnyardgrass","barnyardgrass [18]; Postemergence, 125 g ai/ha",20
same,Soybean plant response rating,soybean [19]; [24],100
same,"Plant response rating, Soybean",soybean [19]; [25],90
same,"Plant response rating, Rice (Flood)",rice,10
same,Kochia plant response rating,kochia [20]; [24],100
same,"Plant response rating, Kochia",kochia [20]; [25],20
same,"Plant response rating, Horseweed","horseweed; 500 g ai/ha, postemergence",60
same,"Plant response rating, Horseweed","horseweed; Postemergence, 125 g ai/ha",50
same,"Plant response rating, Blackgrass","blackgrass [21]; 500 g ai/ha, postemergence",90
same,"Plant response rating, Blackgrass","blackgrass [21]; Postemergence, 125 g ai/ha",60
same,"Plant response rating, Barnyardgrass (Flood)",barnyardgrass [22],25
same,"Plant response rating, Oat, Wild","oat, wild [23]; 500 g ai/ha, postemergence",20
same,"Plant response rating, Oat, Wild","oat, wild [23]; Postemergence, 125 g ai/ha",0
same,"Plant response rating, Sedge, Umbrella (Flood)","sedge, umbrella",70
